In patent US8329413B2, “Glycoproteomic probes for fluorescent imaging of fucosylated glycans in vivo” (Academia Sinica, priority 2007, dated 2012):

Columns and labels:
[1] = tested on: human alpha-1,3-fucosyltranseferases (FucTs) II-VII; assay: Standard microtiter plate assay of tolerability of GDP-fucose analogs for fucosyltransferases; type: biochemical
From the text: (§1) Briefly, fucose analogs 4 and 5 are converted to the corresponding 1-bromides, which then are substituted directly by a phosphate group. […] Therefore, TiBr4 is used instead, as described by Srivastava. The fucose-1-phosphates are converted to the corresponding GDP-fucose analogs by using 1H-tetrazole as a catalyst. The tolerability of GDP-fucose analogs 8 and 9 for human alpha-1,3-fucosyltranseferases (FucTs) II-VII is confirmed by using a standard microtiter plate assay. They are then used to elaborate the glycoconjugate substrate, human alpha1-acid glycoprotein (AGP), an acute-phase protein. As fucosylation of AGP is associated with inflammatory diseases, the degree of fucosylation of AGP could be a potential diagnostic or prognostic marker. AGP was fucosylated by using FucT V in the presence of GDP-fucose analogs 8 or 9. After gel filtration, the fucosylated AGP is labeled by using the corresponding naphthalimide 1a or 1b for 4 h at room temperature. Labeled protein is analyzed by SDS/PAGE and visualized by UV light (365 nm). […] Treated protein was separated by SDS/PAGE and visualized by UV light (Top) and Coomassie blue staining (CBB) (Middle). (Bottom) Modified GDP-fucose.

[2] = Fluorescence spectra and quantum yields of probes and click products; type: physicochemical; conditions: before click reaction
Experimental: Reactivity and click-activated fluorogenic properties of compounds 1a and 1b were tested by performing a Cu(I)-catalyzed azide-alkyne [3+2] cycloaddition (CuAAC) with model fucose analogs 2a and 2b, respectively, as shown in FIG. 3. […] As expected, the ligation reactions produced in a significant increase in fluorescence intensity. The emission maximum of 3a was 462 nm with a quantum yield of 0.36 when excited at 357 nm. […] Unfortunately, the reaction rate between alkyne probe 1a and azidofucose 2a was very slow. Although the reaction of azido probe 1b was completed in <30 min. only 10% of 1a was converted to 3a after 24 h by using the same conditions (monitored by LC-MS). […]
All chemicals were purchased as reagent grade and used without further purification. Reactions were monitored with analytical thin-layer chromatography (TLC) on silica gel 60 F254 plates and visualized under UV (254 nm) and/or by staining with 5% sulfuric acid or acidic ceric ammonium molybdate. ^1H— or ^13C-NMR spectra were measured on a Bruker DRX-500 or DRX-600 using CDCl3 or DMSO-d6 as the solvent (1H, 500 or 600 MHz; ^13C, 125 or 150 MHz). Chemical shifts (in ppm) were determined relative to either tetramethylsilane (0 ppm) or deuterated chloroform (77 ppm). […] Fluorescent excitation and emission were recorded using a HITACHI F-2000 fluorescence spectrophotometer. […]

[3] = tested on: human alpha1-acid glycoprotein (AGP); assay: Fluorescent labeling of AGP fucosylated by FucT V, SDS/PAGE visualized by UV light; type: biochemical; conditions: AGP fucosylated with FucT V and GDP-fucose analog 8, 9 or 10, then labeled with 1a or 1b
From the text: as §1
Human alpha1-acid glycoprotein (0.33 mg/mL), pretreated with alpha-fucosidase, was incubated with human alpha-1,3-fucosyltransferase V (100 mU/mL) in MOPS buffer (50 mM, pH 7.2) containing 150 mM NaCl, 10 mM MnCl2, 4 mM ATP, 0.2 mM GDP-fucose analog (8-10). After incubation at 37° C. for 8 h, additional GDP-fucose derivative (final 0.4 mM) was added and the reaction mixture was incubated at 37° C. for 12 h. […]
The fucosylated glycoconjugate was dissolved in HEPES buffer (50 mM, pH 7.6), and added to a solution containing CuSO4 (0.2 mM), 1.0 mM sodium ascorbate, the tris(triazolyl)amine ligand (20) (0.2 mM, stock in DMSO), and the appropriate naphthalimide ligation probe 1a or 1b (0.1 mM, stock in DMSO, final concentration of DMSO; 10%)). After 1 h at room temperature, the mixture was passed through NAP-5 column in water and lyophilized, and analyzed by SDS-PAGE.

[4] = Decomposition of probe 1b by LC-MS; type: physicochemical
Experimental: Bicyclic aromatic azides are known to easily decompose by thermolysis or photolysis through a highly reactive nitrene intermediate (FIG. 12).
Thus we analyzed the decomposition of 1b using LC-MS (FIG. 13). […] The compounds were monitored at 350 nm by using an Agilent SB C8 50×4.6 mm column. (a) 1b. (b) Cycloaddition reaction with 7. (c) After 12 h incubation without 7. (d) The synthesized 4-amino derivative 1c (1). See typical experimental procedure of cycloaddition for the reaction conditions.
In the presence of 6-alkyne fucose 2b, probe 1b was completely converted into the product 3b. However, without 6-alkyne fucose […], probe 1b decomposed into a fluorescent compound with a molecular weight corresponding to the 4-amino derivative 1c ([M+H]^+ 241; ca. 80% conversion after 12 h incubation at room temperature).

Row | fluorescence of parent probe [2] | decomposition to 4-amino derivative 1c, conversion ([4]; after 12 h incubation at room temperature, without 6-alkyne fucose) | SMILES | tolerability as substrate for FucTs [1] | fluorescent band of labeled AGP on SDS/PAGE under UV light (365 nm) [3] | stability of probe during labeling ([4]; during AGP labeling reaction)
1 |  |  | C#C[C@@H]1O[C@H](OP(=O)(O)OP(=O)(O)OC[C@H]2O[C@@H](n3cnc4c(=O)[nH]c(N)nc43)[C@H](O)[C@@H]2O)[C@@H](O)[C@H](O)[C@@H]1O.CCN(CC)CC [Compound 8, Guanosine 5′-diphospho-6,7-deoxy-beta-L-galacto-hept-6-ynopyranoside triethylammonium salt] | confirmed |  | 
2 | no fluorescence | ca. 80% | CCN1C(=O)c2cccc3c(N=[N+]=[N-])ccc(c23)C1=O [Compound 1b, 4-Azido-N-ethyl-1,8-naphthalimide] |  | clear fluorescent bands | slowly decomposed into a strongly fluorescent 4-amino derivative
